Assay type in all cases: cell-based
The subject of assay [1] is Trypanosoma cruzi amastigotes cultured in 3T3 fibroblast cells. Put plainly: Assay for proliferation of kinetoplastid parasite Trypanosoma cruzi (beta-galactosidase/CPRG readout). To be noted: NIH3T3, 144 h, Tulahuen strain in 3T3 cells, 6 day incubation, read-out: T cruzi EC50. The text has this:
Compounds of the invention can be assayed to measure their capacity to inhibit proliferation of kinetoplastid parasite Trypanosoma cruzi. The screening procedure is for identifying compounds with inhibitor activity against Trypanosoma cruzi amastigotes cultured in 3T3 fibroblast cells. The assay is done using the mammalian stage (amastigotes) of T. cruzi that replicates in the intracellular space of host cells. The host cells are initially infected with the culture-derived trypomastigotes that rapidly invade and then divide as amastigotes. The protocol uses the Tulahuen strain of T. cruzi that has been engineered to express the E. coli beta-galactosidase gene (Lac-Z) (Antimicr. Agents Chemoth. 40:2592, 1996). This allows for a colorimetric readout by using the substrate CPRG and an absorbance plate reader.
3T3 fibroblast cells are re-suspended in RPMI-1640 medium without phenol red medium supplemented with 10% FBS (heat inactivated), 100 μg/ml penicillin, and 100 μg/ml streptomycin. Forty μL of suspension (1,000 cells) is dispensed into 384-well plates and incubated overnight at 37° C. temperature and in atmosphere containing 5% CO2. The following day, 100 nL of compounds of the invention in DMSO are added to plate wells containing 3T3 cells. At the same time control compounds (benznidazole and nifurtimox) and DMSO are added to plates to serve as the positive and negative controls, respectively. After that, 10 μL of media containing 10,000 T. cruzi trypomastigotes are added to each plate well and plates are placed back into incubators. After 6 day incubation, 10 μL of reagent solution (0.6 mM CPRG, 0.6% NP-40 in PBS) is added to plates and incubated at room temperature for 2 hours. Absorbance is then measured on SpectraMax Gemini fluorimeter to determine relative number of T. cruzi cells present in each plate well. The percentage inhibition of 50%, EC50, is calculated for each compound.

The test system of assay [2] is Leishmania donovani axenic amastigote parasites. Description: Assay for Leishmania proliferation in vitro (axenic amastigotes, Cell TiterGlo). To be noted: 48 h, 2 day incubation, read-out: L. donovani amastigotes EC50. The procedure:
Leishmania donovani axenic amastigote parasites are grown at 37° C., 5% CO2 in media made of RPMI 1640, 4 mM L-glutamine, 20% heat inactivated FBS, 100 units/ml of penicillin and 100 μg/ml of streptomycin, 23 μM Folic Acid, 100 μM Adenosine, 22 mM D-glucose, 25 mM MES. The pH of media is adjusted to 5.5 at 37° C. using HCl. 20 μL of media is first dispensed into 384 well plates and […] of the compounds of invention in DMSO are added to the plate wells. At the same time control compounds and DMSO are added to plates to serve as the positive and negative controls, respectively. 40 μL of parasite culture (9600 parasites) are then added to the plate wells. The plates are then placed into incubators. After 2 day incubation, 20 μL of Cell TiterGlo (Promega) is added to the plate wells. The luminescence signal of each well is measured using the Envision reader (Perkin Elmer). The percentage inhibition of 50%, EC50, is calculated for each of the compounds.
On the technique in general: Cellular ATP, detected with luciferase, serves as a proxy for viable cell number.

Assay [3] concerns Trypanosoma brucei Lister 427 strain. Description: Assay for proliferation of kinetoplastid parasite Trypanosoma brucei (Cell Titer Glo). To be noted: bloodstream form, 48 hours, read-out: T. brucei EC50. The text has this: The proliferation is quantified by the addition of Cell Titer Glo (Promega®) a luminescent cell viability assay that measures the number of viable cells in culture based on the quantification of cellular ATP amount, which is an indicator of metabolically active cells. The following assay illustrates the invention without in any way limiting the scope of the invention. This parasite proliferation assay measures the increase in parasite growth using an assay that measures ATP activity, Cell Titer Glo®.
Trypanosoma brucei Lister 427 strain is grown in HMI-9 Trypanosome media for T. brucei bloodstream form. 30 μl of HMI-9 media is dispensed into 384 well assay plates. 200 nL of compounds of the invention (in DMSO), including anti-trypanosome controls (Pentamidine and suramin), are then transferred into the assay plates, as well as DMSO alone to serve as a negative control for inhibition. Then 25 μl of a suspension of T. brucei culture in HMI-9 media is dispensed into the assay plates. The final concentration of parasites in culture corresponds to 1.7% of 0.5 uM ATP activity with Cell Titer Glo® in HMI-9 media. The plates are placed in a 37° C. incubator for 48 hours in an atmospheric environment containing 5% CO2. 40 μl of Cell Titer Glo® is dispensed into the plates. The plates are then read for luminescence. The percentage inhibition of 50%, EC50, is calculated for each compound.

Assay [4] deals with L. donovani HU3 strain in mouse peritoneal macrophages. Put plainly: Proliferation of L. donovani in mouse peritoneal macrophages (SybrGreen, high-content imaging). To be noted: Leishmania donovani, Peritoneal macrophage, 120 h; infected mouse peritoneal macrophages, 5 days; read-out: L. donavani Macrophage EC50. The text has this: The activity of a compound according to the present invention for inhibition of parasitemai can be assessed by the parasite proliferation assay. The assay measures the increase in the parasite number in the assayed plate well using a DNA intercalating dye, SYBR Green I® dye (INVITROGEN) to stain Leishmania cell nuclei. It is understood that the assays illustrate the invention without in any way limiting the scope of the invention.
L. donovani HU3 strain is propagated by infecting BALBc mice through tail vein injection with 10^7 Leishmania parasites. Infected mice are allowed to develop infection during 9-11 weeks post-infection. During this time, the parasites accumulate in the infected mouse spleens to large numbers, and the infected mice serve as the source of parasites for the in vitro measurement of compound efficacies. To assay a compound for anti-leishmanial activity, peritoneal macrophages isolated from non-infected BALBc mice are seeded into 384-well plates at density 2×10^4 macrophages per well in 25 mL of medium (RPMI1640, 10% fetal serum albumin, 10 mM HEPES, 1 mM sodium pyruvate, 1% Pen/Strep). Subsequently, the seeded plates are placed into an incubator set to maintain 37° C. temperature and atmosphere with 5% CO2. The next day, Leishmania parasites are isolated from the spleens of mice infected for 9-11 weeks and 4×10^5 isolated parasites in […] of the above media are added to each plate well. Plates are then returned into incubators and infection is allowed to proceed for 24 hours. After the infection of macrophages is completed, […] of compounds of the invention in the above medium, which also contains 5% DMSO, are added to plate wells containing infected macrophages. At the same time control compounds (miltefosine and amphotericin B) and DMSO are added to plates to serve as the positive and negative controls, respectively. After the compound addition, the plates are returned into incubator and cells infected with parasites are cultured for 5 days. At the end of cultivation, […] of 8% paraformaldehyde is added to plate wells and incubated for 15 min at room temperature. Following the incubation, the paraformaldehyde from plate wells is aspirated, and […] of PBS containing 0.2% Triton X-100 is added to wells. After 15 min incubation, the solution is aspirated from wells again, and replaced with SybrGreen Dye solution in PBS (1:125,000 dilution). Infected cells are imaged with Evotec Opera high-content microscope, and the number of parasites in well is determined by counting parasite nuclei visualized by staining with SybrGreen dye. The percentage inhibition of 50%, EC50, is calculated for each compound.
The inhibitory efficacy of the compounds of the invention against proliferation of L. donovani in mouse peritoneal macrophages is provided in Table I.

The EC50 is the concentration giving half of the maximal effect.

Consider `CC(C)OC(=O)Nc1cnc2nc(-c3cc(NC(=O)c4ccco4)ccc3Cl)[nH]c2c1` [Example 2, propan-2-yl N-{2-[2-chloro-5-(furan-2-amido)phenyl]-1H-imidazo[4,5-b]pyridin-6-yl}carbamate], for which the concentration for a half-maximal effect (EC50) in assay [1] was 0.142 µM; in assay [2], 0.19 µM; in assay [3], 0.039 µM; in assay [4], 0.315 µM.

`CCOC(=O)Nc1cnc2nc(-c3cc(NC(=O)c4ccco4)ccc3Cl)[nH]c2c1` [Example 6, ethyl N-{2-[2-chloro-5-(furan-2-amido)phenyl]-1H-imidazo[4,5-b]pyridin-6-yl}carbamate]: the concentration giving a half-maximal response (EC50) is 0.58 µM in assay [2], 0.034 µM in assay [3] and 1.42 µM in assay [4].

Take `COC(=O)Nc1cnc2nc(-c3cc(NC(=O)c4ccco4)ccc3Cl)[nH]c2c1` [Example 9, methyl N-{2-[2-chloro-5-(furan-2-amido)phenyl]-1H-imidazo[4,5-b]pyridin-6-yl}carbamate]: the EC50 in assay [2] amounted to 0.95 µM; in assay [3], 0.143 µM; in assay [4] it was 2.48 µM.

As to `O=C(Nc1ccc(Cl)c(-c2nc3ncc(NC(=O)C(O)CO)cc3[nH]2)c1)c1ccco1` (stereo not shown) [Example 18, N-{4-chloro-3-[6-(2,3-dihydroxypropanamido)-1H-imidazo[4,5-b]pyridin-2-yl]phenyl}furan-2-carboxamide], the EC50 in assay [2] is 8.9 µM; in assay [3] it was 1.72 µM; in assay [4] it was 16.9 µM.

`CC(C)(CO)C(=O)Nc1cnc2nc(-c3cc(NC(=O)c4ccco4)ccc3Cl)[nH]c2c1` [Example 22, N-{4-chloro-3-[6-(3-hydroxy-2,2-dimethylpropanamido)-1H-imidazo[4,5-b]pyridin-2-yl]phenyl}furan-2-carboxamide]: the results for the EC50 in assay [2], in assay [3] and in assay [4] were 20.7 µM, 0.76 µM and greater than 50 µM, respectively.

For `O=C(Nc1ccc(Cl)c(-c2nc3ncc(NC(=O)C4CCNCC4)cc3[nH]2)c1)c1ccco1` [Example 46, N-{2-[2-chloro-5-(furan-2-amido)phenyl]-1H-imidazo[4,5-b]pyridin-6-yl}piperidine-4-carboxamide], the half-maximal effective concentration (EC50) was greater than 20 µM in assay [1], greater than 25 µM in assay [2] and greater than 50 µM in assay [4].

With `CNS(=O)(=O)Nc1cnc2nc(-c3cc(NC(=O)c4ccco4)ccc3Cl)[nH]c2c1` [Example 52, N-(4-chloro-3-{6-[(methylsulfamoyl)amino]-1H-imidazo[4,5-b]pyridin-2-yl}phenyl)furan-2-carboxamide], the half-maximal effective concentration (EC50) in assay [1] is greater than 20 µM; in assay [2], greater than 25 µM; in assay [4], 28.9 µM.

Turning to `O=C(Nc1cnc2nc(-c3cc(NC(=O)c4ccco4)ccc3Cl)[nH]c2c1)OCCF` [Example 53, 2-fluoroethyl N-{2-[2-chloro-5-(furan-2-amido)phenyl]-1H-imidazo[4,5-b]pyridin-6-yl}carbamate], the EC50 in assay [1] came to 3.2 µM; in assay [2], 1.31 µM; in assay [4], 1.74 µM.

As to `CS(=O)(=O)Nc1ccc(Cl)c(-c2nc3ncc(NS(C)(=O)=O)cc3[nH]2)c1` [Example 58, N-[2-(2-chloro-5-methanesulfonamidophenyl)-1H-imidazo[4,5-b]pyridin-6-yl]methanesulfonamide], the concentration giving a half-maximal response (EC50) in assay [1] is greater than 20 µM; in assay [2], greater than 25 µM; in assay [4], greater than 50 µM.

Turning to `CC(C)S(=O)(=O)Nc1ccc(Cl)c(-c2nc3ncc(NS(=O)(=O)C(C)C)cc3[nH]2)c1` [Example 59, N-{2-[2-chloro-5-(propane-2-sulfonamido)phenyl]-1H-imidazo[4,5-b]pyridin-6-yl}propane-2-sulfonamide], the figures for the EC50 in assay [1], in assay [2] and in assay [4] were greater than 20 µM, greater than 25 µM and greater than 22.8 µM, respectively.

On to `CCOC(=O)Nc1cnc2nc(-c3cc(NC(=O)c4ccc(C#N)o4)ccc3Cl)[nH]c2c1` [Example 61, ethyl N-{2-[2-chloro-5-(5-cyanofuran-2-amido)phenyl]-1H-imidazo[4,5-b]pyridin-6-yl}carbamate], for which the EC50 in assay [1] is greater than 20 µM; in assay [2], 2.69 µM; in assay [4], 3.13 µM.

Take `O=C(Nc1ccc(Cl)c(-c2nc3ncc(NC(=O)C4CNC4)cc3[nH]2)c1)c1ccco1` [Example 62, N-{2-[2-chloro-5-(furan-2-amido)phenyl]-1H-imidazo[4,5-b]pyridin-6-yl}azetidine-3-carboxamide]: the EC50 in assay [1] was greater than 20 µM; in assay [2] it was greater than 25 µM; in assay [4], greater than 28.8 µM.

`NCCC(=O)Nc1cnc2nc(-c3cc(NC(=O)c4ccc(F)o4)ccc3Cl)[nH]c2c1` [Example 73, N-{3-[6-(3-aminopropanamido)-1H-imidazo[4,5-b]pyridin-2-yl]-4-chlorophenyl}-5-fluorofuran-2-carboxamide]: the EC50 in assay [1] was greater than 20 µM; in assay [2], greater than 25 µM; in assay [4], greater than 50 µM.

As to `Nc1cnc2nc(-c3cccc(NC(=O)c4ccc(F)o4)c3)[nH]c2c1` [Example 79, N-(3-{6-amino-1H-imidazo[4,5-b]pyridin-2-yl}phenyl)-5-fluorofuran-2-carboxamide], the EC50 in assay [1] is 1.46 µM; in assay [2], greater than 25 µM; in assay [4], 24.5 µM.

The values are drawn from US9186361B2, “Compounds and compositions for the treatment of parasitic diseases” (Novartis AG, priority 2013, dated 2015).
